Patent publication US20240018150A1

Assays:
TMD8 cells = assay: Cell assay, in-vitro inhibition of TMD8 cells (CellTiter-Glo); type: cell-based; conditions: Homo sapiens, 2000 cells/well, 72 hrs, read-out: TMD8 (IC50, in-vitro inhibitory test on cells)
Procedure: (§1) Plating: The cells were suspended in serum-free medium and counted with automatic cell counter. According to the seeding density, the cell suspension was diluted to the required density. 95 μL cell (2000 cells/well) was added to each well, and incubated at 5% CO2 and 37° C.
(§2) Preparation of compound solution: The compound was prepared into a diluted solution of 1000× final concentration with dimethyl sulfoxide. The test concentrations of the compound were 10000, 3333.33, 1111.11, 370.37, 123.46, 41.15, 13.72, 4.57, 1.52, and 0.51 nM. The compound was diluted with the culture medium to prepare a compound solution of 20× final concentration. 5 uL of the compound solution was added to each well, and the same volume of dimethyl sulfoxide was added to the control well. The cells were incubated at 37° C. and 5% CO2 for 72 hrs.
(§3) Detection: The cell plate equilibrated to room temperature, 40 μl of CellTiter-Glo® reagent was added to each well, shaken for 2 min, allowed to stand for 10 min, and detected with SpectraMax Paradigm.
(§4) Data Analysis • (1) The IC50 value was calculated using GraphPad Prism 5. • (2) % Inh=(Max signal−Compound signal)/(Max signal−Min signal)×100. • (3) Max signal was a value of the positive control well in which only DMSO of the same volume with the compound solution was present. • (4) Min signal was a value of the negative control well in which only the culture medium was present.

[1] = test system: Ba/F3-BCR-BTK-C481S cells; assay: Cell assay, in-vitro inhibition of Ba/F3-BCR-BTK-C481S cells (CellTiter-Glo); type: cell-based; conditions: 2000 cells/well, 72 hrs, read-out: Ba/F3-BCR-BTK-C481S (IC50, in-vitro inhibitory test on cells)
Procedure: as §1, §2, §3, §4

BTK kinase = BTK kinase (Homo sapiens, UniProt Q06187); assay: Inhibitory activity test on BTK kinase (electrophoretic mobility shift assay); type: biochemical; conditions: Caliper EZ ReaderII, enzyme and compound 10 min at room temperature, read-out: BTK (IC50, in-vitro inhibitory test on kinase)
Sequence of BTK kinase (Q06187 whole entry): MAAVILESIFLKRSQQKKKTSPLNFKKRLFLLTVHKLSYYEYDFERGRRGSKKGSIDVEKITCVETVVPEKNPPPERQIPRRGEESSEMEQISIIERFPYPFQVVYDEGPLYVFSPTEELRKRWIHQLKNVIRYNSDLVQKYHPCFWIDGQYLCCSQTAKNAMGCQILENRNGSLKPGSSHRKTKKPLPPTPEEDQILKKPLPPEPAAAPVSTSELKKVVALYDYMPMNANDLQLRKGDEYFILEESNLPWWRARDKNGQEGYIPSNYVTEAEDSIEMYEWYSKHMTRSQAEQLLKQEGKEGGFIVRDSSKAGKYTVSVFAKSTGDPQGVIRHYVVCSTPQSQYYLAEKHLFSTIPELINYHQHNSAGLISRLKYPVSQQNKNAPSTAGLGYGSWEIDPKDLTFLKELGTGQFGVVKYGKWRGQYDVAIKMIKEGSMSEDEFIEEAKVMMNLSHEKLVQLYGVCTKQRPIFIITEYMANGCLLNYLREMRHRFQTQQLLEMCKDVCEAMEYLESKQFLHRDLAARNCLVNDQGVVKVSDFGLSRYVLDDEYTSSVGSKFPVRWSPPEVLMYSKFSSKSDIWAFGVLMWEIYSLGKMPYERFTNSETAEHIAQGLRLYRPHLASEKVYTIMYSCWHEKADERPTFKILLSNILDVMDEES

IC50 [1] [nM]	IC50 (BTK kinase) [nM]	Compound	IC50 (TMD8 cells) [nM]
447		O=C(c1ccc(Oc2ccccc2)cc1Cl)c1c[nH]c2ncnc(N[C@@H]3CC[C@@H](CO)OC3)c12 [ARQ531, reference compound]	111
	9	O=C(c1ccc(Oc2ccccc2)cc1Cl)c1c[nH]c2nccc(N[C@H]3CC[C@H](C(=O)O)CC3)c12 [Compound I-5, (1r, 4r)-4-((3-(2-chloro-4-phenoxybenzoyl)-1H-pyrrolo[2,3-b]pyridin-4-yl)amino)cyclohexane-1-carboxylic acid]	
	2.7	O=C(c1ccc(Oc2ccccc2)cc1Cl)c1c[nH]c2nccc(N[C@H]3CC[C@@H](C(=O)O)CC3)c12 [Compound I-6, (1s, 4s)-4-((3-(2-chloro-4-phenoxybenzoyl)-1H-pyrrolo[2,3-b]pyridin-4-yl)amino)cyclohexane-1-carboxylic acid]	
	7.1	O=C(c1ccc(Oc2ccccc2)cc1)c1c[nH]c2nccc(N[C@H]3CC[C@@H](C(=O)O)CC3)c12 [Compound I-8, (1s, 4s)-4-((3-(4-phenoxybenzoyl)-1H-pyrrolo[2,3-b]pyridin-4-yl)amino)cyclohexane-1-carboxylic acid]	
	6.2	O=C(c1ccc(Oc2ccccc2)cc1Cl)c1c[nH]c2nccc(N[C@H]3C[C@@H](C(=O)O)C3)c12 [Compound I-11, (1s, 3s)-3-((3-(2-chloro-4-phenoxybenzoyl)-1H-pyrrolo[2,3-b]pyridin-4-yl)amino)cyclobutane-1-carboxylic acid]	
	9.5	O=C(c1ccc(Oc2ccccc2)cc1Cl)c1c[nH]c2nccc(NC3CCNCC3)c12 [Compound I-22, (2-chloro-4-phenoxyphenyl)(4-(piperidin-4-ylamino)-1H-pyrrolo[2,3-b]pyridin-3-yl)methanone]	
	48	O=C(c1ccc(Oc2ccccc2)cc1Cl)c1c[nH]c2nccc(N[C@@H]3CCCNC3)c12 [Compound I-23, (R)-(2-chloro-4-phenoxyphenyl)(4-(piperidin-3-ylamino)-1H-pyrrolo[2,3-b]pyridin-3-yl)methanone]	
	52	O=C(c1ccc(Oc2ccccc2)cc1Cl)c1c[nH]c2nccc(N[C@H]3CC[C@H](O)CC3)c12 [Compound I-24, (2-chloro-4-phenoxyphenyl)(4-(((1r, 4r)-4-hydroxycyclohexyl)amino)-1H-pyrrolo[2,3-b]pyridin-3-yl)methanone]	
	110	O=C(c1ccc(Oc2ccccc2)cc1Cl)c1c[nH]c2nccc(NCCOCCO)c12 [Compound I-28, (2-chloro-4-phenoxyphenyl)(4-((2-(2-hydroxyethoxy)ethyl)amino)-1H-pyrrolo[2,3-b]pyridin-3-yl)methanone]	
	95	O=C(c1ccc(Oc2ccccc2)cc1Cl)c1c[nH]c2nccc(N[C@H]3CC[C@H](CO)CC3)c12 [Compound I-30, (2-chloro-4-phenoxyphenyl)(4-(((1r, 4r)-4-(hydroxymethyl)cyclohexyl)amino)-1H-pyrrolo[2,3-b]pyridin-3-yl)methanone]	
	28	O=C(c1ccc(Oc2ccccc2)cc1Cl)c1c[nH]c2nccc(N[C@H]3CC[C@@H](CO)CC3)c12 [Compound I-31, (2-chloro-4-phenoxyphenyl)(4-(((1s, 4s)-4-(hydroxymethyl)cyclohexyl)amino)-1H-pyrrolo[2,3-b]pyridin-3-yl)methanone]	
	11	O=C(c1ccc(Oc2ccccc2)cc1Cl)c1c[nH]c2nccc(N[C@@H]3CC[C@@H](CO)OC3)c12 [Compound I-32, (2-chloro-4-phenoxyphenyl)(4-(((3R, 6S)-6-(hydroxymethyl)tetrahydro-2H-pyran-3-yl)amino)-1H-pyrrolo[2,3-b]pyridin-3-yl)methanone]	
	80	O=C(c1ccc(Oc2ccccc2)cc1)c1c[nH]c2nccc(N[C@H]3CC[C@@H](CO)CC3)c12 [Compound I-33, (4-(((1s, 4s)-4-(hydroxymethyl)cyclohexyl)amino)-1H-pyrrolo[2,3-b]pyridin-3-yl)(4-phenoxyphenyl)methanone]	
	22	CNC(=O)[C@H]1CC[C@H](Nc2ccnc3[nH]cc(C(=O)c4ccc(Oc5ccccc5)cc4Cl)c23)CC1 [Compound I-35, (1r, 4r)-4-((3-(2-chloro-4-phenoxybenzoyl)-1H-pyrrolo[2,3-b]pyridin-4-yl)amino)-N-methylcyclohexane-1-carboxamide]	
	141	NS(=O)(=O)N1CCC(Nc2ccnc3[nH]cc(C(=O)c4ccc(Oc5ccccc5)cc4Cl)c23)CC1 [Compound I-37, 4-((3-(2-chloro-4-phenoxybenzoyl)-1H-pyrrolo[2,3-b]pyridin-4-yl)amino)piperidin-1-sulfonamide]	
	242	CS(=O)(=O)N1CCC(Nc2ccnc3[nH]cc(C(=O)c4ccc(Oc5ccccc5)cc4Cl)c23)CC1 [Compound I-38, (2-chloro-4-phenoxyphenyl)(4-((1-(methanesulfonyl)piperidin-4-yl)amino)-1H-pyrrolo[2,3-b]pyridin-3-yl)methanone]	
	16	N[C@H]1CC[C@H](Nc2ccnc3[nH]cc(C(=O)c4ccc(Oc5ccccc5)cc4Cl)c23)CC1 [Compound I-73, (4-(((1r, 4r)-4-aminocyclohexyl)amino)-1H-pyrrolo[2,3-b]pyridin-3-yl)(2-chloro-4-phenoxyphenyl)methanone]	
52	2.8	N[C@H]1CC[C@@H](Nc2ccnc3[nH]cc(C(=O)c4ccc(Oc5ccccc5)cc4Cl)c23)CC1 [Compound I-74, (4-(((1s, 4s)-4-aminocyclohexyl)amino)-1H-pyrrolo[2,3-b]pyridin-3-yl)(2-chloro-4-phenoxyphenyl)methanone]	65.9
103		CC(=O)N[C@H]1CC[C@@H](Nc2ccnc3[nH]cc(C(=O)c4ccc(Oc5ccccc5)cc4Cl)c23)CC1 [Compound I-87, N-((1s, 4s)-4-((3-(2-chloro-4-phenoxybenzoyl)-1H-pyrrolo[2,3-b]pyridin-4-yl)amino)cyclohexyl)acetamide]	114
68.6		CN[C@H]1CC[C@@H](Nc2ccnc3[nH]cc(C(=O)c4ccc(Oc5ccccc5)cc4Cl)c23)CC1 [Compound I-89]	97.7
